Earlier results in patent publication US11083748B2 (priority 2003, dated 2021).

What was measured:
[1] = in vivo, iv
patients = conditions: human, in vivo

Question: For `O=C(O)CN(CCN(CC(=O)O)CC(=O)O)CC(=O)O` [EDTA, ethylenediamine tetraacetic acid], which “fraction of the drug remaining one hour following administration” value [1] is on record?
Answer: one-half

Question: What about the half-life [1] of the same molecule?
Answer: 20 to 60 min

Question: Which solubility in water does the source give for `CC(C)(S)[C@@H](N)C(=O)O` [Penicillamine, beta,beta-dimethylcysteine] here?
Answer: freely soluble

Question: For `O=C(O)C(S)C(S)C(=O)O` (stereo not shown) [Succimer, dimercaptosuccinic acid], which “patients with drug-induced elevations of liver transaminases (mild and transient)” value (patients) is on record?
Answer: up to 10%
